Test results taken from patent US20210353784A1, “DETECTING AND TREATING CANCERS USING CELL PENETRANT MTP53-OLIGOMERIZATION-DOMAIN PEPTIDE” (priority 2020, published 2021).

Legend:
[1] = biological target: T1, mtp53 (Homo sapiens, UniProt P04637, R273H); test: Glutaraldehyde cross-link assay in MDA-MB-468 cell lysates; assay type: binding; settings: in the presence of glutaraldehyde; cells treated 1.5 μM, 4 h; Cy5 channel
T1 construct: endogenous in cells; host or cells: MDA-MB-468
Excerpt: FIG. 4D illustrates Cy5p53Tet treated with glutaraldehyde without MDA-MB-468 cell lysate.
Wtp53 can form a tetramer, and its oligomerization regulates its transcriptional activity. Tetramerization is important for both wtp53 and mtp53, as both are preferentially degraded by MDM2 when present as dimers rather than tetramers. The oligomerization states of mtp53 were examined and the interactions were investigated by Cy5p53Tet and mtp53 using glutaraldehyde (GA) cross-linking assays (FIG. 4A to FIG. 4D). MDA-MB-468 cells were treated with vehicle or 1.5 μM of Cy5p53Tet for 4 h. Whole-cell lysates were cross-linked with glutaraldehyde concentrations of 0, 0.0025, or 0.005%, and the samples were analyzed by Western blot to detect p53 oligomerization forms (FIG. 4A). In cells without glutaraldehyde, monomers of mtp53 were detected; at 0.0025% glutaraldehyde, monomers, dimers, and tetramers were visible; and at 0.005% glutaraldehyde, the predominant form was tetramers. The presence of Cy5p53Tet-containing mtp53 polypeptides was evaluated using the Cy5 channel (FIG. 4B). Cy5p53Tet was detected at a low molecular weight: <12 kDa in the absence of glutaraldehyde (FIG. 4B, lane 4). […] As a control, the glutaraldehyde cross-linking of Cy5p53Tet was examined without mtp53 and found no such signal (FIG. 4D). […]

[2] = test system: WHIM6 and WHIM25 tumors; test: Epifluorescence imaging (IVIS) of Cy5p53Tet uptake in bilateral PDX WHIM6/WHIM25 tumors; assay type: in vivo, NSG mice; settings: 10 nmol tail vein
Protocol: In vivo optical imaging of Cy5p53Tet peptide uptake in bilateral PDX WHIM6/WHIM25 xenograft models. 2 million WHIM6 cells and WHIM25 cells were injected subcutaneously on the left and right shoulders of each mouse. 10 nmol Cy5p53Tet peptide was intravenously injected to each mouse when tumor size reached to 100-200 mm^3. At 1 hr, 2 hr and 3 hr post Cy5p53Tet peptide injection, the tumors were removed and the epifluorescence images were taken using an IVIS Spectrum. […] Cy5p53Tet peptide epifluorescence intensity quantification in WHIM6 and WHIM25 tumors was analyzed.
First, WHIM6/WHIM25 bilateral PDX tumor-bearing NSG mice were tail vein injected with 10 nmol of Cy5p53Tet peptide to study its delivery efficacy (FIG. 5A). Then, the WHIM6 and WHIM25 tumors were removed at 1, 2, and 3 hr post-injection. Uptake of the Cy5p53Tet peptide in WHIM6 and WHIM25 tumors was assessed on an in vivo epifluorecent imaging system (IVIS). […] The Cy5p53Tet peptide signal was investigated in PDX tumor tissue by extracting proteins from the WHIM6 and WHIM25 tumors post-injection with the Cy5p53Tet peptide at 1 hr, 2 hr, and 3 hr, and the Cy5p53Tet peptide effects were characterized in PDX models (FIG. 5B). Samples were run on 12% polyacrylamide gel and the Cy5p53Tet peptide accumulated in tumors was scanned at Cy5 channel and quantified. […]

[3] = test system: p53, p73 and PARP1 protein levels in WHIM6 and WHIM25 tumors; test: Western blot of p53, p73 and PARP1 protein levels in PDX tumors after Cy5p53Tet injection; assay type: in vivo, NSG mice
Protocol: 25 μg of proteins were run on 12% polyacrylamide gel and the Cy5p53Tet peptide accumulated in tumors was scanned at Cy5 channel and quantified. The intensity of Cy5p53Tet peptide was analyzed by ImageJ. p53 and MDM2 protein levels from the WHIM6 and WHIM25 tumors post-injection with Cy5p53Tet peptide at 1 hr, 2 hr and 3 hr were determined by Western blot analysis. 25 ug of proteins were load on 12% SDS-PAGE gel.
FIG. 5C is a Western blot analysis showing p53, p63 and p73 protein levels from the WHIM6 and WHIM25 tumors 2 hr post injection with Cy5p53Tet peptide. 75 ug of proteins were load on 10% SDS-PAGE gel (left panel). p53, PARP1 and p73 protein levels from the WHIM6 and WHIM25 tumors 1 hr, 2 hr and 3 hr post injection with Cy5p53Tet peptide were determined by Western blot analysis (right panel). 50 ug of proteins were load on 10% SDS-PAGE gel.
PDX models have been used in translational cancer research to validate the mechanisms that link specific biomarkers to treatment efficacy that could make clinical decisions. The coexpression of mtp53 and PARP1 proteins can be biomarkers for companion diagnostics using PDX models with mtp53. […] Uptake of the Cy5p53Tet peptide in WHIM6 and WHIM25 tumors was assessed on an in vivo epifluorecent imaging system (IVIS). The Cy5p53Tet peptide was detected in both TNBC PDX tumors; however, there was a higher Cy5 fluorescence signal in the tumor site of WHIM6 compared to tumor site of WHIM25 (FIG. 5A, represent picture of 2 hr post injection). […] Samples were run on 12% polyacrylamide gel and the Cy5p53Tet peptide accumulated in tumors was scanned at Cy5 channel and quantified. […]
Given the high degree of structural similarity of the tetramerization domain shared by the p53 family members, p63, and p73, the Cy5p53Tet peptide is believed to bind to TD of p63 or p73 and cause the Cy5p53Tet peptide accumulation in WHIM6 tumors. […] A higher level of p63 was detected in WHIM6 than in WHIM25 tumors (FIG. 5C left panel, compare lane 1 to 2). p73 protein levels were very low in both WHIM6 and WHIM25 tumors. […]

H-CysCy5-RKKRRQRRGEYFTLQIRGRERFEMFRELNEALELK-OH (N-terminal Cy5; Synthetic peptide based on p53 protein) [Cy5p53Tet]
molecular weight at which Cy5p53Tet was observed [1]: > 225 kDa
Cy5 fluorescence signal in the tumor site of WHIM6 compared to WHIM25 [2]: higher
mtp53 and wtp53 protein levels upon treatment ([3]; WHIM25 and WHIM6 tumors): not affected
PARP1 protein levels in response to the peptide ([3]; mtp53 WHIM25 tumor samples): deceased
p73 protein levels in response to the peptide ([3]; mtp53 WHIM25 tumor samples): increased
